Assays:
[1] = system: glucose-loaded SD rats; experiment: OGTT (Oral Glucose Tolerance Test), Test Example 2; type: in vivo, rat; conditions: 1, 3, or 10 mg/kg oral, 16 hours before glucose load; compared to vehicle
Description: (§1) OGTT (Oral Glucose Tolerance Test)
Vehicle (0.5% methylcellulose solution) or Compound 1 (1, 3, or 10 mg/kg) suspended in a 0.5% methylcellulose solution was orally administered in 5 mL/kg to an about 4-hour-fasted male SD rat (8-week old, Nihon Charles River K.K., 6 cases for each group). […] Statistical analyses were based on Steel's multiple test. The significance level was two-sided 5%.

[2] = system: male SDT fatty rats; experiment: Assessment of renal protective effect (GFR in SDT fatty rats), Test Example 5; type: in vivo, rat; conditions: 2 mg/kg oral once a day, 16 weeks; vs vehicle group of SDT fatty rats
Description: Assessment of Renal Protective Effect
Vehicle (0.5% methyl cellulose solution), Compound 1 (2 mg/kg), or dapagliflozin (0.3 mg/kg) was orally administered once a day to male SDT fatty rats (7-week old, CLEA Japan, Inc.); and as a normal control, vehicle was orally administered once a day to male SD rats (7-week old, CLEA Japan, Inc.). 16 Weeks after the administration, GFR (mL/min/100 g B.W.) was measured with a transdermal GFR monitor (MediBeacon). For statistical analysis, Student's test was conducted between the vehicle-administered group of SD rats and the vehicle-administered group of SDT fatty rats. Dunnett's multiple test was conducted for the Compound 1 and dapagliflozin groups to the vehicle group of SDT fatty rats. The significance level was two-sided 5%.

[3] = system: 5/6-kidney-removed rats (male Wistar); experiment: Assessment of renal protective effect 2 (5/6-kidney-removed rats), Test Example 6; type: in vivo, rat; conditions: 2 mg/kg/day mixed with feed, vs vehicle-administered group
Description: Assessment of Renal Protective Effect 2
7-Week old male Wistar rats (Japan SLC, Inc.) were treated by removing 2/3 of the left kidney under isoflurane anesthesia and then removing the whole right kidney one week later to prepare 5/6-kidney-removed rats. Compound 1 (2 mg/kg/day) mixed with feed was orally administered to the rats from the age of 9 weeks. As a normal control, male Wistar rats at the same age were set as a sham group. […] For statistical analysis, Student's test was conducted between the vehicle-administered group and the Compound 1-administered group. […] For statistical analysis, Student's test or Aspin-Welch was conducted.

[4] = target: T1, human SGLT1 (Homo sapiens, UniProt P13866); experiment: Assessment of SGLT1 inhibitory activity (14C-AMG uptake in human SGLT1-stably-expressing CHO-K1 cell line); type: cell-based
T1 sequence (P13866 1-664): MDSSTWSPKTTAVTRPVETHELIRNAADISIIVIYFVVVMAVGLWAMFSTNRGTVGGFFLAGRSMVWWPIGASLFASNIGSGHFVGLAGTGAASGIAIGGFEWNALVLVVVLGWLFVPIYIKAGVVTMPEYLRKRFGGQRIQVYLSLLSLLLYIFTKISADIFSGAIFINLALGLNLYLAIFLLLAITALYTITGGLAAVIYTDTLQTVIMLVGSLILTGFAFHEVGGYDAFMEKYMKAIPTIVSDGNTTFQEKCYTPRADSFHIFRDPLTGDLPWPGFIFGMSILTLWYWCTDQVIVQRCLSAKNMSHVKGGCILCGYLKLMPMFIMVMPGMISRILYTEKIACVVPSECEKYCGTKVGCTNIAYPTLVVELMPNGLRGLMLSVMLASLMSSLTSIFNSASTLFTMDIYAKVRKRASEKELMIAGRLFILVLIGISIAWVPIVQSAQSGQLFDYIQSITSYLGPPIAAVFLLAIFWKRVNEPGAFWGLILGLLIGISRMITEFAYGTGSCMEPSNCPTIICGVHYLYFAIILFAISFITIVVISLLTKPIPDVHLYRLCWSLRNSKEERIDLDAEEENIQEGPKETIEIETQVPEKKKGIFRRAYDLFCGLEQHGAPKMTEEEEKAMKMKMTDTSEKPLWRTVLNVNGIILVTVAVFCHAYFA
Description: Assessment of SGLT1 Inhibitory Activity
SGLT1 inhibitory activities of test compounds (IC50 values) were calculated based on the amount of intracellular uptake of labelled […] (^14C-AMG) transported by SGLT1.
1) Formation of Human SGLT1-Expressing Plasmid
A DNA fragment containing human SGLT1 was amplified by PCR (Polymerase Chain Reaction) using pCMV6-hSGLT1 (OriGene) as a template. In the human SGLT1, NheI recognition and cleavage sequence was added to the upstream of Kozac consensus sequence derived from a vector, and a stop codon, TAG, and SalI recognition and cleavage sequence were added to the immediate downstream of the protein-translating region of human SGLT1. […]
Human SGLT1-stably-expressing cell lines were seeded at 5×10^4 cells/well on BioCoat™ Poly-D-Lysine 96 well plate with Lid (Becton, Dickinson and Company) and cultured at 37° C. under 5% CO2 overnight. […] In the assessment for the uptake ability of ^14C-AMG, the total amount of the cell lysate was transferred to OptiPlate 96 (Perkin-E1mer) with 100 μL/well of MicroScint-40 (Perkin-E1mer) dispensed and ^14C of CPM was measured with TOPCOUNT NXT (Perkin-E1mer).
Data was calculated by deducting the average value of CPM for blank well from the average value of CPM for each well treated. […]

[5] = system: glucose-loaded SD rats; experiment: OGTT (Oral Glucose Tolerance Test), Test Example 3; type: in vivo, rat; conditions: 3 mg/kg oral, 16 hours before glucose load; compared to vehicle
Description: as §1
Vehicle (0.5% methylcellulose solution), or Compound 1, Compound A, or Compound B (3 mg/kg each) suspended in a 0.5% methylcellulose solution was orally administered in 5 mL/kg to an about 4-hour-fasted male SD rat (8-week old, Nihon Charles River K.K., 5 cases for each group).
Statistical analyses were based on Dunnett's multiple group test. The significance level was two-sided 5%.

[6] = system: Salmonella typhimurium (TA98, TA1537, TA100, and TA1535) and Escherichia coli (WP2 uvrA); experiment: Ames test (reverse mutation test), all bacterial tester strains; type: cell-based; conditions: any of the bacterial tester strains, with and/or without S9 mix
Description: (§2) Ames Test (Reverse Mutation Test)
(§3) Two plates per treatment were used.

[7] = system: Salmonella typhimurium TA1535; experiment: Ames test (reverse mutation test), TA1535; type: cell-based
Description: as §2, §3

[8] = with S9 mix, dose 1667 μg/plate
[9] = with S9 mix, dose 5000 μg/plate
[10] = without S9 mix, dose 6.9 μg/plate
[11] = without S9 mix, dose 21 μg/plate
[12] = without S9 mix, dose 62 μg/plate
[13] = without S9 mix, dose 185 μg/plate
[14] = without S9 mix, dose 556 μg/plate
[15] = without S9 mix, dose 1667 μg/plate
[16] = without S9 mix, dose 5000 μg/plate

SMILES: C[C@H]1C(=O)NC[C@@H]1C(=O)Nc1cc(-c2cc(F)cc(OC(C)(C)C)c2)n(C(F)(F)F)n1 [Example 1, (3R,4R)-N-(5-(3-(tert-butoxy)-5-fluorophenyl)-1-(trifluoromethyl)-1H-pyrazol-3-yl)-4-methyl-5-oxopyrrolidine-3-carboxamide]
- blood glucose level after the glucose load (Δ AUC to 120 minutes, % of Vehicle) [1]: significantly reduced the blood glucose level
- GFR (mL/min/100 g B.W.) [2]: inhibited the increase of GFR
- protein quantities in the urine (mg/mgCr) ([3]; 16, 30, and 69 days): lower than those of the vehicle-administered group
- creatinine clearance (mL/min) [3]: significantly higher than that of the vehicle-administered group
- urea nitrogen levels (mg/dL) [3]: significantly lower than those of the vehicle-administered group
- SGLT1 inhibitory activity ([4]; qualitative statement): confirmed to have the SGLT1 inhibitory activity
- blood glucose level after the glucose load (Δ AUC to 120 minutes, % of Vehicle) [5]: significantly reduced the blood glucose level

SMILES: C[C@H]1C(=O)NC[C@@H]1C(=O)Nc1cc(-c2cccc(OC(F)(F)F)c2)n(-c2ccc(Cl)nn2)n1 [Example 10]
- inhibition at 0.3 µM ([4]; CHO-K1, at 0.3 μM, read-out: hSGLT1 inhibition): 45%

SMILES: Nc1cc(-c2cc(F)cc(OC(F)(F)F)c2)n(-c2cncc(F)c2)n1 [Metabolite 3]
- potential to induce reverse mutations [6]: did not show potential to induce reverse mutations
- Number of revertant colonies TA1535 ([7]; with S9 mix, dose 6.9 μg/plate): 8
- Number of revertant colonies TA1535 ([7]; with S9 mix, dose 21 μg/plate): 9
- Number of revertant colonies TA1535 ([7]; with S9 mix, dose 62 μg/plate): 11
- Number of revertant colonies TA1535 ([7]; with S9 mix, dose 185 μg/plate): 9
- Number of revertant colonies TA1535 ([7]; with S9 mix, dose 556 μg/plate): 4
- Number of revertant colonies TA1535 [7, 8]: 3
- Number of revertant colonies TA1535 [7, 9]: 1
- Number of revertant colonies TA1535 [7, 10]: 9
- Number of revertant colonies TA1535 [7, 11]: 11
- Number of revertant colonies TA1535 [7, 12]: 10
- Number of revertant colonies TA1535 [7, 13]: 8
- Number of revertant colonies TA1535 [7, 14]: 8
- Number of revertant colonies TA1535 [7, 15]: 0
- Number of revertant colonies TA1535 [7, 16]: 0

SMILES: Nc1cc(-c2cc(F)cc(OC(F)(F)F)c2)n(-c2cncc(C(F)(F)F)c2)n1 [Metabolite 5]
- potential to induce reverse mutations [6]: did not show potential to induce reverse mutations
- Number of revertant colonies TA1535 ([7]; with S9 mix, dose 6.9 μg/plate): 10
- Number of revertant colonies TA1535 ([7]; with S9 mix, dose 21 μg/plate): 11
- Number of revertant colonies TA1535 ([7]; with S9 mix, dose 62 μg/plate): 10
- Number of revertant colonies TA1535 ([7]; with S9 mix, dose 185 μg/plate): 9
- Number of revertant colonies TA1535 ([7]; with S9 mix, dose 556 μg/plate): 7
- Number of revertant colonies TA1535 [7, 8]: 4
- Number of revertant colonies TA1535 [7, 9]: 2
- Number of revertant colonies TA1535 [7, 10]: 9
- Number of revertant colonies TA1535 [7, 11]: 11
- Number of revertant colonies TA1535 [7, 12]: 4
- Number of revertant colonies TA1535 [7, 13]: 7
- Number of revertant colonies TA1535 [7, 14]: 6
- Number of revertant colonies TA1535 [7, 15]: 3
- Number of revertant colonies TA1535 [7, 16]: 4

Reference: US12721844B2, “Chronic kidney disease treatment or prevention method” (Japan Tobacco Inc., priority 2019, dated 2026)
